The nature of data set [1]: Acute toxicity (LD50), i.v. via tail vein, one-week observation. The settings on record: both sexes, mouse, in vivo, iv, Kunming mice, YC-6 injection of Example 3 (20 mg/ml). The procedure: Kunming mice were caged by weight and randomly divided into 5 groups. Each group had 10 mice, with half males and half females. The YC-6 injection 10 prepared in Example 3 (20 mg/ml) was i.v. administrated via tail vein at different doses. All mice were sacrificed after one-week observation. The toxic reaction and number of death of the animals were recorded every day. LD50 and 95% confidence were calculated.

A further data set in a line: Solubility in water. It counts as physicochemical. The note with it: background statement, no test described.

One may read the LD50 as the dose at which mortality reaches 50%. Higher therefore signals a less toxic substance.

In data set [1], `C[C@@]12CCC[C@H]1[C@@H]1C[C@@H](O)[C@@]3(O)C[C@@H](O)CC[C@]3(C)[C@H]1CC2` [YC-6, 5α-androstane-3β,5,6β-triol] came in with a median lethal dose (LD50) at 1 week above 400 mg/kg. Besides, the Solubility in water entry in the data set “Solubility in water” was “low solubility in water”.
